Experiments:
[1] = tested on: human nasal epithelial cells; experiment: Cytosolic Ca2+ measurement (Fura-2) in human nasal epithelial cells; assay type: cell-based
Description: (§1) Human nasal epithelial cells were harvested from turbinates using protease XIV (Sigma, St. Louis, Mo.) for 24-48 h at 4° C., as previously described. R. Wu, et al., Am. Rev. Respir. Dis. 132, 311-320 (1985). Cytosolic Ca^2+ and inositol phosphate measurements were made on nasal cell monolayers plated on porous Transwell Col filters (pore diameter 0.45 μm; Costar, Cambridge, Mass.) and maintained in Ham's F12 media supplemented with 10 ng/mL epidermal growth factor, 3.75 ng/mL endothelial cell growth factor, 500 ng/mL hydrocortisone, 5 ng/mL insulin, and 1 mM CaCl2 (Ham's F12+4X medium). Assays were carried out 7 to 10 days after seeding, a time coincident with the development of the maximal transepithelial potential difference according to N. Nakahata & T. K. Harden, Biochem. J. 241, 337-344 (1987).
(§2) Nasal cells grown on Transwell Col filters affixed to O-rings were maintained in F12+4X medium and studied 7-10 days after cell plating as described above. For Ca^2+i measurements, cells were loaded with Fura-2 and mounted in a miniature Ussing chamber over an objective of a microscope (Zeiss) coupled to a microfluorimeter, and cytosolic Ca^2+i levels were quantitated as previously described in Paradiso et al., supra. The fluorescence intensity ratio (excitation 340/380; emission λ 450 nm) was collected from a field of 30-40 nasal cells on monolayers and converted to Ca^2+ as previously described in E. H. Larsen et al, J. Physiol. 424, 109-131 (1990). For simultaneous measurements of Cl^− secretion, the transepithelial potential difference (TEP) was measured by a Voltage-Clamp/Pulse Generator (Model VCC600, Physiologic Instruments, San Diego, Calif.) and recorded on a two-channel recorder (Linsesis Model L200S). To calculate changes in Cl^− secretory current (ΔICl^−), a defined 1 sec current pulse was delivered across the monolayer every 10 sec. The nasal tissue was converted from its native Na^+ absorptive state to a Cl^− secretory state by exposing monolayers to a luminal medium containing 0 Na^+/low Cl^− and to a basolateral medium of Krebs bicarbonate Ringer solution.

P2Y2 receptor = P2Y2 receptor (Homo sapiens, UniProt P41231); settings: UTP-free UDP; cited from earlier work
sheep [2] = experiment: Mucociliary clearance in sheep; assay type: in vivo; settings: 400 μmole nebulized
Description: Healthy adult ewes were given ^99mTc-labeled serum albumin (^99mTc-HCA) via a nebulized aerosol. The (^99mTc-HCA)(20 mCi) was administered over 5 minutes through a nasotracheal tube introduced under local anesthesia with 2% lidocaine. After administration of the ^99Tc-HCA, the animals were given the test compound UDP. The test compound was administered by nebulization in a volume of 4 mL over a period of 10-12 min. The test compound was given at a dose of 400 μmole. After the administration of the test compound, the animals were extubated. Clearance of the radiolabeled particles was monitored with a gamma camera. Measurements were made a 0, 5, 10, 15, 20, 25, 30, 35, 40, 45, 50, 55, 60, 75, 90, 105 and 120 minutes. Results of this study (n=7) have shown that the test compound promotes clearance of radiolabeled particles when compared to the saline control. […] The response to UDP was maximal at 60 minutes and was maintained for the second hour of the study. The results of this experiment are illustrated graphically in FIG. 6.

sheep [3] = experiment: Tracheal mucus velocity in sheep; assay type: in vivo; settings: 400 μmole nebulized
Description: To measure the effect of UDP on tracheal mucus velocity (TMV), the nasal passages of conscious adult ewes were anesthetized with a 2% lidocaine solution. After local anesthesia was produced, a modified endotracheal tube (7.5 mm) was placed such that the cuff was just below the vocal cords (as verified by fluoroscopy). Inspired air was warmed and humidified. The cuff on the endotracheal tube was inflated only during administration of the test compound to minimize possible impairment of TMV by the cuff. Test compounds were administered by nebulization in a volume of 4 mL over a period of 10-12 min. TMV was measured by fluoroscopy. Ten to twenty radiopaque disks (Teflon/bismuth trioxide; 1 mm diameter; 0.8 mm thick, weighing 1.8 mg) were introduced into the trachea through a modified suction catheter with a puff of compressed air (3-4 L/min). Velocities of the individual disks were recorded on videotape form a portable image intensifier unit. Individual disk velocities were calculated by measuring the distance traveled by each disk during a 1 min observation period. Values reported are the means of the individual disk velocities. A collar was worn by the sheep, which was used as a standard to correct for magnification errors inherent in the fluoroscope.

[4] = tested on: human nasal epithelial cells; experiment: Cl- secretion (transepithelial potential difference, Ussing chamber) in human nasal epithelial cells; assay type: cell-based
Description: as §1, §2

[5] = tested on: human nasal epithelial cells; experiment: [3H]inositol phosphate formation in polarized human nasal epithelial cells; assay type: cell-based
Description: as §1
Confluent human nasal epithelial cells as described in Example 1 were labeled for 18 h in inositol-free DMEM containing 4.5g/L glucose and 5 μCi/mL of [^3H]myo-inositol. These cells were pre-incubated with 10 mM LiCl and challenged with agonists for an additional 10 min. No changes of medium were made subsequent to addition of [^3H]myo-inositol to avoid release of endogenous ATP from stressed cells. E. R. Lazarowski et al., Br. J Pharmacol. 116, 1619-1627 (1995). Incubations were terminated by addition of 5% ice-cold trichloroacetic acid and the resultant [^3H]inositol phosphates were separated on Dowex AG1-X8 columns as described in A. M. Paradiso et al., Nature 377, 643-646 (1995).

[6] = subsequent 3 μM then 10 μM UDP, mucosal (desensitization)

Sequence of P2Y2 receptor (P41231 whole entry): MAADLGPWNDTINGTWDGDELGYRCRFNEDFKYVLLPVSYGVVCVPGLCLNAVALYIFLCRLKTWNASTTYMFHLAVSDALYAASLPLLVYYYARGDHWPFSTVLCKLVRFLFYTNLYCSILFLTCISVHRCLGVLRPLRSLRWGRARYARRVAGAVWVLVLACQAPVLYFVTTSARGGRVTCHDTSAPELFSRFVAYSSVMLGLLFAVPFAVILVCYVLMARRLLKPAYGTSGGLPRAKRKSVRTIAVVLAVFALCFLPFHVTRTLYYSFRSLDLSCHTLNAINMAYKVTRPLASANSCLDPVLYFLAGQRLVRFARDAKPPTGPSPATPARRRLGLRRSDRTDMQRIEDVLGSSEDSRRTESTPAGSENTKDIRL

O=c1ccn([C@@H]2O[C@H](COP(=O)(O)OP(=O)(O)O)[C@@H](O)[C@H]2O)c(=O)[nH]1 [UDP, uridine 5′-diphosphate]
ΔCa2+ (mobilization of intracellular calcium) ([1]; 3 μM, mucosal bath, first addition): 66 ± 12 nM
Maximal calcium mobilization effect relative to response with mucosal UTP ([1]; mucosal, 100 μM): approximately one half
ΔCa2+ after subsequent addition [1, 6]: 0
Activity at the P2Y2 receptor (P2Y2 receptor): essentially inactive
Time of maximal response (clearance) (sheep [2]): 60 min
Maximal effect, clearance of radiolabeled particles (sheep [2]; n=7): 33.6±1.6 % clearance
Time of maximal effect after administration (TMV) (sheep [3]): 15 min
ΔICl-, mucosal ([4]; 3 μM, mucosal): 16±3 μA·cm^2
Cl- secretory response (ΔICl-) ([4]; 3 μM, mucosal bath, first addition, n=8): −16.3±3 μA/cm^2
ΔICl-, serosal ([4]; 3 μM, serosal): 0±0 μA·cm^2
Magnitude of Cl- secretion response relative to mucosal UTP response ([4]; mucosal): approximately one half
ΔICl- after subsequent addition [4, 6]: 0
Accumulation of [3H]inositol phosphates, mucosal ([5]; 100 μM, mucosal): marked accumulation
Effect on inositol phosphate accumulation, serosal bath ([5]; 100 μM, serosal): negligible effect
EC50 ([5]; Homo sapiens, Epithelial cell, 10 min, added to mucosal medium, 10 min, read-out: EC50 for stimulating inositol phosphate formation): 0.19 ± 0.027 µM
Maximal inositol phosphate effect relative to response with mucosal UTP ([5]; mucosal, 100 μM): approximately one half
